This note sets out measurements from PubChem BioAssay AID206 (DTP/NCI, 2004).

This assay has as its system nude mice, HT29 intrarenal xenograft, tumor weight T/C. Kind of assay: NCI In Vivo Anticancer Drug Screen. Data for tumor model HT29;CX-1 Human Adenocarcinoma (MER+) (intrarenal inoculation) in NU/NU Swiss (nude) mice. The conditions noted are these: endpoint: mean tumor weight change, higher = larger tumour. The procedure:
The antitumor activity of compounds was measured in mice bearing transplantable tumors. Survival or tumor size were measured and the results are expressed as the measurement made in the treated group (T) divided by the measurement made in the vehicle treated control group (C). The tumor model used in this assay is HT29;CX-1 Human Adenocarcinoma (MER+) (intrarenal inoculation) in NU/NU Swiss (nude) mice

[1] abbreviates: dose: 300.0 mg/kg/injection, schedule: Q04DX004 (sc), vehicle: Klucel (hydroxypropylcellulose) (HPC).
[2] abbreviates: dose: 600.0 mg/kg/injection, schedule: Q04DX004 (sc), vehicle: Klucel (hydroxypropylcellulose) (HPC).
The mark [3] stands for this setting: dose: 1200.0 mg/kg/injection, schedule: Q04DX004 (sc), vehicle: Klucel (hydroxypropylcellulose) (HPC).
The mark [4] stands for this setting: dose: 50.0 mg/kg/injection, schedule: Q01DX010 (sc), vehicle: saline with Tween-80.
The mark [5] stands for this setting: dose: 100.0 mg/kg/injection, schedule: Q01DX010 (sc), vehicle: saline with Tween-80.
[6] abbreviates: dose: 100.0 mg/kg/injection, schedule: Q04DX004 (sc), vehicle: saline with Tween-80.
The mark [7] stands for this setting: dose: 200.0 mg/kg/injection, schedule: Q04DX004 (sc), vehicle: saline with Tween-80.
Where [8] appears, read: dose: 400.0 mg/kg/injection, schedule: Q04DX004 (sc), vehicle: saline with Tween-80.

“And” between values parts separate entries of the source, which are not always exact repeats. Identical values can stand only once. Results filed as inconclusive are left out.

Regarding `O=NN(CCCl)C(=O)Oc1cc(Cl)c(Cl)cc1Cl`, the T/C was 94 % of control (dose: 150.0 mg/kg/injection, schedule: Q04DX004 (sc), vehicle: Klucel (hydroxypropylcellulose) (HPC)); 83 % of control under setting [1]; 92 % of control under setting [2].
Consider `C#C[C@]1(O)CC[C@H]2[C@@H]3CCc4cc(O)ccc4[C@H]3CC[C@@]21C`, for which the T/C is, setting by setting: under setting [2], 91 % of control; under setting [3], 83 % of control; (dose: 2400.0 mg/kg/injection, schedule: Q04DX004 (sc), vehicle: Klucel (hydroxypropylcellulose) (HPC)) 80 % of control.
Turning to `CCc1c(CC(=O)O)c2cc(C)ccc2n1Cc1ccc(Cl)cc1`, the T/C (dose: 100.0 mg/kg/injection, schedule: Q04DX004 (sc), vehicle: Klucel (hydroxypropylcellulose) (HPC)) is 77 % of control; the T/C (dose: 200.0 mg/kg/injection, schedule: Q04DX004 (sc), vehicle: Klucel (hydroxypropylcellulose) (HPC)) is 74 % of control; the T/C (dose: 400.0 mg/kg/injection, schedule: Q04DX004 (sc), vehicle: Klucel (hydroxypropylcellulose) (HPC)) is 86 % of control; the T/C (dose: 800.0 mg/kg/injection, schedule: Q04DX004 (sc), vehicle: Klucel (hydroxypropylcellulose) (HPC)) is 97 % of control.
Regarding `O=Cc1c(O)c2ccccc2[nH]c1=O`, the T/C was 79 % of control (dose: 300.0 mg/kg/injection, schedule: Q04DX004 (sc), vehicle: saline with Tween-80); 98 % of control (dose: 600.0 mg/kg/injection, schedule: Q04DX004 (sc), vehicle: saline with Tween-80); 65 % of control (dose: 1200.0 mg/kg/injection, schedule: Q04DX004 (sc), vehicle: saline with Tween-80).
Take `O=Cc1ccc([N+](=O)[O-])s1`: the T/C is 166 % of control (dose: 25.0 mg/kg/injection, schedule: Q01DX010 (sc), vehicle: saline with Tween-80); 176 % of control under setting [4]; 97 % of control under setting [5].
As to `COC1C(/C=C/C(C)=O)OC2OC(C)(C)OC21` (stereo unspecified), the T/C by setting is: (dose: 75.0 mg/kg/injection, schedule: Q04DX004 (sc), vehicle: suspension in saline) 74 % of control; (dose: 150.0 mg/kg/injection, schedule: Q04DX004 (sc), vehicle: suspension in saline) 106 % of control; (dose: 300.0 mg/kg/injection, schedule: Q04DX004 (sc), vehicle: suspension in saline) 54 % of control; (dose: 600.0 mg/kg/injection, schedule: Q04DX004 (sc), vehicle: suspension in saline) 20 % of control.
On to `CN1N=C(N)c2cn(C3OC(COP(=O)(O)O)C(O)C3O)c3ncnc1c23` (stereo unspecified), for which the T/C is 156 % of control (dose: 25.0 mg/kg/injection, schedule: Q01DX010 (sc), vehicle: water) and 182 % of control (dose: 50.0 mg/kg/injection, schedule: Q01DX010 (sc), vehicle: water).
For `CCCCC(=O)OCC(=O)[C@]1(O)Cc2c(O)c3c(c(O)c2[C@@H](OC2CC(NC(=O)C(F)(F)F)C(O)C(C)O2)C1)C(=O)c1c(OC)cccc1C3=O` (stereo partly specified), the T/C was 61 % of control (dose: 64.0 mg/kg/injection, schedule: Q01DX010 (sc), vehicle: distilled water + Tween-80); 83 % of control (dose: 128.0 mg/kg/injection, schedule: Q01DX010 (sc), vehicle: distilled water + Tween-80); 46 % of control (dose: 256.0 mg/kg/injection, schedule: Q01DX010 (sc), vehicle: distilled water + Tween-80).
For `CC(=O)Nc1ccc(C(=O)C=O)cc1`, the T/C is 57 % of control under setting [4]; 88 % of control under setting [5]; 68 % of control (dose: 200.0 mg/kg/injection, schedule: Q01DX010 (sc), vehicle: saline with Tween-80); 26 % of control (dose: 400.0 mg/kg/injection, schedule: Q01DX010 (sc), vehicle: saline with Tween-80); 78 % of control (dose: 800.0 mg/kg/injection, schedule: Q01DX010 (sc), vehicle: saline with Tween-80).
`CCCCC1CCCCCCc2[nH]c(/C=C3\N=C(c4ccc[nH]4)C=C3OC)cc21` (stereo unspecified): the T/C (dose: 16.0 mg/kg/injection, schedule: Q04DX004 (sc), vehicle: saline with Tween-80) is 200 % of control.
Regarding `COc1cc(C(=O)c2cc3c(cc2C)OCO3)cc(OC)c1OC`, the T/C under setting [1] is 83 % of control, the T/C under setting [2] was 64 % of control and the T/C under setting [3] is 82 % of control.
Consider `CN(C)CCN1C(=O)c2cccc3cc(N)cc(c23)C1=O`, for which the T/C (dose: 64.0 mg/kg/injection, schedule: Q04DX004 (sc), vehicle: saline with Tween-80) was 70 % of control.
In the case of `Clc1ccc2nnnn2n1`, the T/C by setting is: under setting [6], 114 % of control; under setting [7], 45 % of control.
For `O=C1C=C[C@H](O)[C@@]2(CO)O[C@@H]12`, the T/C (dose: 6.25 mg/kg/injection, schedule: Q04DX004 (sc), vehicle: saline with Tween-80) is 109 % of control and the T/C (dose: 12.5 mg/kg/injection, schedule: Q04DX004 (sc), vehicle: saline with Tween-80) was 82 % of control.
Consider `C/C(=N\NC(N)=O)c1cccc(/C(C)=N/NC(N)=O)n1`, for which the T/C under setting [7] is 106 % of control and the T/C under setting [8] was 108 % of control.
On to `COC(=O)c1ccoc1`, for which the T/C (dose: 150.0 mg/kg/injection, schedule: Q04DX004 (sc), vehicle: saline) is 116 % of control.
With `C[C@]12C=CC(=O)C=C1CC[C@@H]1[C@@H]2[C@@H](O)C[C@@]2(C)[C@H]1CC[C@]2(O)C(=O)CO`, the T/C (dose: 12.5 mg/kg/injection, schedule: Q01DX010 (sc), vehicle: Klucel (hydroxypropylcellulose) (HPC)) was 79 % of control; the T/C (dose: 25.0 mg/kg/injection, schedule: Q01DX010 (sc), vehicle: Klucel (hydroxypropylcellulose) (HPC)) is 112 % of control; the T/C (dose: 50.0 mg/kg/injection, schedule: Q01DX010 (sc), vehicle: Klucel (hydroxypropylcellulose) (HPC)) is 66 % of control; the T/C (dose: 100.0 mg/kg/injection, schedule: Q01DX010 (sc), vehicle: Klucel (hydroxypropylcellulose) (HPC)) was 83 % of control.
With `O=NN(CCCl)C(=O)NCCCl`, the T/C by setting is: (dose: 2.0 mg/kg/injection, schedule: Q01DX010 (sc), vehicle: saline) 80 % of control; (dose: 4.0 mg/kg/injection, schedule: Q01DX010 (sc), vehicle: saline) 66 % of control; (dose: 8.0 mg/kg/injection, schedule: Q01DX010 (sc), vehicle: saline) 61 % of control and 70 % of control; (dose: 15.0 mg/kg/injection, schedule: Q04DX004 (sc), vehicle: suspension in saline) 100 % of control; (dose: 30.0 mg/kg/injection, schedule: Q04DX004 (sc), vehicle: suspension in saline) 69 % of control; (dose: 60.0 mg/kg/injection, schedule: Q04DX004 (sc), vehicle: suspension in saline) 41 % of control.
On to `Nc1nnc[se]1`, for which the T/C was 58 % of control (dose: 50.0 mg/kg/injection, schedule: Q04DX004 (sc), vehicle: saline with Tween-80); 33 % of control under setting [6]; 34 % of control under setting [7]; 23 % of control under setting [8].
As to `OCCO`, the T/C was 85 % of control (dose: 4.0 % in 0.5 ml injection vol, schedule: Q04DX004 (sc), vehicle: other); 46 % of control (dose: 8.0 % in 0.5 ml injection vol, schedule: Q04DX004 (sc), vehicle: other); 26 % of control (dose: 16.0 % in 0.5 ml injection vol, schedule: Q04DX004 (sc), vehicle: other).
Turning to `c1ccc([P+](c2ccccc2)(c2ccccc2)c2ccccc2)cc1`, the T/C by setting is: (dose: 5.0 mg/kg/injection, schedule: Q04DX004 (sc), vehicle: saline) 105 % of control; (dose: 10.0 mg/kg/injection, schedule: Q04DX004 (sc), vehicle: saline) 107 % of control; (dose: 20.0 mg/kg/injection, schedule: Q04DX004 (sc), vehicle: saline) 68 % of control.
Turning to `CC(C)NC(=O)OCc1c(COC(=O)NC(C)C)c(-c2ccc(Cl)c(Cl)c2)n2c1CCC2`, the T/C was 107 % of control (dose: 25.0 mg/kg/injection, schedule: Q01DX010 (sc), vehicle: distilled water + Tween-80); 15 % of control (dose: 50.0 mg/kg/injection, schedule: Q01DX010 (sc), vehicle: distilled water + Tween-80); 60 % of control and 78 % of control (dose: 200.0 mg/kg/injection, schedule: Q01DX010 (sc), vehicle: distilled water + Tween-80); 44 % of control (dose: 800.0 mg/kg/injection, schedule: Q01DX010 (sc), vehicle: distilled water + Tween-80).
